Measurements from the supplement of paper PMC7600603.

What was measured:
DLD1 NRF2-GOF [1] = test: drug sensitivity score (DSS) viability (DSS score); higher = more sensitive; extreme values may be limits of the assay; conditions: 72 h; CellTiter-Glo viability
How it was run: (§1)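 Library compounds were tested in 384-well plates at 5 concentrations covering a 10,000-fold span against isogenic DLD1 colorectal cancer cells, NRF2 wild-type or CRISPR gain-of-function, grown in DMEM with 10% FBS. Viability was measured at 72 h with CellTiter-Glo on a Pherastar FS reader, relative to vehicle wells and 100-μM positive-control wells. EC50 and drug sensitivity score (normalised area under the curve) were derived from logistic dose-response curves fitted with four parameters.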

DLD1 NRF2-WT [2] = test: as above; conditions: 72 h; CellTiter-Glo viability
How it was run: as §1

DLD1 NRF2-GOF [3] = test: drug sensitivity score (DSS) cytotoxicity (DSS score); higher = more toxic; extreme values may be limits of the assay; conditions: 72 h; CellTox Green cytotoxicity
How it was run: (§2)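 Isogenic DLD1 colorectal cancer cells, either NRF2 wild-type or CRISPR gain-of-function, were grown in DMEM with 10% FBS. They were exposed in 384-well plates to library compounds at 5 concentrations spanning a 10,000-fold range. After 72 h, cytotoxicity was read by CellTox Green on a Pherastar FS reader and normalised to vehicle wells and 100-μM positive-control wells. TC50 and drug sensitivity score (a normalised area under the curve) came from logistic dose-response fits.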

DLD1 NRF2-WT [4] = test: as above; conditions: 72 h; CellTox Green cytotoxicity
How it was run: as §2

DLD1 NRF2-GOF [5] = test: TC50 cytotoxicity; higher = less toxic; conditions: 72 h; CellTox Green cytotoxicity
How it was run: as §2

DLD1 NRF2-WT [6] = test: TC50 cytotoxicity; higher = less toxic; conditions: 72 h; CellTox Green cytotoxicity
How it was run: as §2

DLD1 NRF2-GOF [7] = conditions: 72 h; CellTiter-Glo viability
How it was run: as §1

DLD1 NRF2-WT [8] = conditions: 72 h; CellTiter-Glo viability
How it was run: as §1

Row | Structure (SMILES) | EC50 viability (DLD1 NRF2-GOF [7]) [nM] | EC50 viability (DLD1 NRF2-WT [8]) [nM] | drug sensitivity score (DLD1 NRF2-GOF [1]) | drug sensitivity score (DLD1 NRF2-WT [2]) | drug sensitivity score (DLD1 NRF2-GOF [3]) | drug sensitivity score (DLD1 NRF2-WT [4]) | TC50 cytotoxicity (DLD1 NRF2-GOF [5]) [µM] | TC50 cytotoxicity (DLD1 NRF2-WT [6]) [µM]
1 | CC[C@@H]1C(=O)OC[C@@H]1Cc1cncn1C [Pilocarpine] | > 40000 | > 40000 | 0.1 | 0 | 0 | 0 | > 40 | > 40
2 | CCOCc1nc2c(N)nc3ccccc3c2n1CC(C)(C)O [Resiquimod] | > 10000 | > 10000 | 0.6 | 0.7 | 0 | 0 | > 10 | > 10
3 | CCN(CC)CCCC(C)Nc1ccnc2cc(Cl)ccc12 (stereo not given) [Chloroquine] | 9780 | 6410 | 11.8 | 13.8 | 5 | 6 | 25.8 | 26.1
4 | Cc1cn(-c2cc(NC(=O)c3ccc(C)c(Nc4nccc(-c5cccnc5)n4)c3)cc(C(F)(F)F)c2)cn1 [Nilotinib] | 983 | > 10000 | 4 | 2.5 | 0 | 0 | > 10 | > 10
5 | Cc1cccc(-c2[nH]c(CNc3ccccc3F)nc2-c2ccc3ncnn3c2)n1 [TEW-7197] | > 2500 | > 2500 | 1.7 | 0 | 0 | 0 | > 2.5 | > 2.5
6 | CC[C@H](Nc1ncnc2[nH]cnc12)c1nc2cccc(F)c2c(=O)n1-c1ccccc1 [Idelalisib] | > 10000 | > 10000 | 2 | 1.6 | 0 | 0 | > 10 | > 10
7 | O=C(/C=C/c1cccnc1)NCCCCC1CCN(C(=O)c2ccccc2)CC1 [Daporinad] | 4.9 | 4 | 25.9 | 27.6 | 0 | 0 | > 1 | > 1
8 | C[C@@H](C(=O)O)c1ccc(-c2ccccc2)c(F)c1 [Tarenflurbil] | > 10000 | > 10000 | 0 | 0 | 0 | 0 | > 10 | > 10
9 | CC(O)c1cc(C(=O)N[C@@H](C)Cn2ccc(-c3ccc(C#N)c(Cl)c3)n2)n[nH]1 (stereo not given in full) [ODM-201] | > 2500 | > 2500 | 0.9 | 0.2 | 0 | 0 | > 2.5 | > 2.5
10 | Nc1ncnc2c1nc(Cl)n2[C@@H]1O[C@H](CO)[C@@H](O)[C@H]1O [8-chloro-adenosine] | 1310 | 1150 | 15.2 | 16.6 | 0.2 | 0 | > 50 | > 50

Second part, led by results:

Row | EC50 viability (DLD1 NRF2-GOF [7]) [nM] | EC50 viability (DLD1 NRF2-WT [8]) [nM] | Structure (SMILES) | drug sensitivity score (DLD1 NRF2-GOF [1]) | drug sensitivity score (DLD1 NRF2-WT [2]) | drug sensitivity score (DLD1 NRF2-GOF [3]) | drug sensitivity score (DLD1 NRF2-WT [4]) | TC50 cytotoxicity (DLD1 NRF2-GOF [5]) [µM] | TC50 cytotoxicity (DLD1 NRF2-WT [6]) [µM]
11 | 138 | 168 | COc1cccc2c1C(=O)c1c(O)c3c(c(O)c1C2=O)C[C@@](O)(C(=O)CO)C[C@@H]3O[C@H]1C[C@H](N)[C@H](O)[C@H](C)O1 [Doxorubicin] | 9.2 | 8.1 | 0 | 0 | > 1 | > 1
12 | 54.5 | 70.7 | CC(=O)c1cnc2ccc(-c3cc(Cl)c(O)c(Cl)c3)nc2c1N[C@H]1CC[C@H](CN(C)C)CC1 [OTS167] | 13 | 12.8 | 3 | 0.6 | > 1 | > 1
13 | 1680 | > 10000 | Cc1cc(C)c(CNC(=O)c2cc(-c3ccc(CN4CCOCC4)cc3)cc3c2cnn3C2CCCC2)c(=O)[nH]1 [EPZ-5687] | 3.2 | 3.3 | 0 | 0 | > 10 | > 10
14 | > 1000 | > 1000 | C[C@H]1Oc2cc(cnc2N)-c2c(nn(C)c2C#N)CN(C)C(=O)c2ccc(F)cc21 | 1.6 | 0 | 0 | 0 | > 1 | > 1
15 | 92.1 | 357 | CO[C@@H](C(=O)N1Cc2[nH]nc(NC(=O)c3ccc(N4CCN(C)CC4)cc3)c2C1)c1ccccc1 [Danusertib] | 16.6 | 10.4 | 0 | 2.4 | > 10 | > 10
16 | 194 | 171 | CO[C@@H](C)Cn1c(=O)n(C)c2cnc3ccc(-c4cncc(C(C)(C)O)c4)cc3c21 | 9.5 | 10.5 | 0 | 0 | > 2.5 | > 2.5
17 | 1600 | 1940 | CNC(=O)c1ccccc1Nc1cc(Nc2ccc(N3CCOCC3)cc2OC)ncc1C(F)(F)F [VS-4718] | 4.7 | 4.3 | 0 | 0 | > 10 | > 10
18 | 266 | 156 | CN1CC[C@H](c2c(O)cc(O)c3c(=O)cc(-c4ccccc4Cl)oc23)[C@H](O)C1 [Alvocidib] | 16.2 | 20.1 | 0 | 0.8 | > 10 | > 10
19 | 1560 | 295 | CN1CCc2c(c3ccccc3n2Cc2ccc(C(=O)NO)cc2)C1 [Tubastatin A] | 4.1 | 4 | 0 | 0 | > 10 | > 10
20 | > 1000 | > 1000 | C[C@@H](Oc1ccc2[nH]nc(/C=C/c3cnn(CCO)c3)c2c1)c1c(Cl)cncc1Cl | 2 | 1.4 | 0 | 0 | > 1 | > 1
